{"source": "patent US9458102B2", "about": "(priority 2011, dated 2016)", "key": {"[1]": {"target": "heteromeric rod CNG channels consisting of CNGA1 and CNGB1 subunits (Bos taurus, UniProt Q00194+Q28181)", "sequence (Q00194 whole entry)": "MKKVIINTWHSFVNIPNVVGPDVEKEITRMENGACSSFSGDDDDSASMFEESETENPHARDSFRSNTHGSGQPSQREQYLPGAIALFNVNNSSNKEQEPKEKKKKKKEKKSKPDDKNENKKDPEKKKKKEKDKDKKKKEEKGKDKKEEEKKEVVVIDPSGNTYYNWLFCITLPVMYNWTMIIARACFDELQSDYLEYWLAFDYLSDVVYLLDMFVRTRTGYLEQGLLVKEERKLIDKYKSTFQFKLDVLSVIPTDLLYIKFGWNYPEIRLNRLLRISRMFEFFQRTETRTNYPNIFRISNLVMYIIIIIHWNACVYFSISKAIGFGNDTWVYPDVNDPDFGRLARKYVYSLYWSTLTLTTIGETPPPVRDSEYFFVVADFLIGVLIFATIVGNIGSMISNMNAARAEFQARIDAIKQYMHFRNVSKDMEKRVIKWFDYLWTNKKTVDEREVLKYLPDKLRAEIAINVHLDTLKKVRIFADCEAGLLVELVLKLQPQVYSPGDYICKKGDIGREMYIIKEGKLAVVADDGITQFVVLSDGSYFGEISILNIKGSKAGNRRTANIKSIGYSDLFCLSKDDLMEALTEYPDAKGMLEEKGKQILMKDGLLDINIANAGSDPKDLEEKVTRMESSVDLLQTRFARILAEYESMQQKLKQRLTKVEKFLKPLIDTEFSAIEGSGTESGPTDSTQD", "sequence (Q28181 whole entry)": "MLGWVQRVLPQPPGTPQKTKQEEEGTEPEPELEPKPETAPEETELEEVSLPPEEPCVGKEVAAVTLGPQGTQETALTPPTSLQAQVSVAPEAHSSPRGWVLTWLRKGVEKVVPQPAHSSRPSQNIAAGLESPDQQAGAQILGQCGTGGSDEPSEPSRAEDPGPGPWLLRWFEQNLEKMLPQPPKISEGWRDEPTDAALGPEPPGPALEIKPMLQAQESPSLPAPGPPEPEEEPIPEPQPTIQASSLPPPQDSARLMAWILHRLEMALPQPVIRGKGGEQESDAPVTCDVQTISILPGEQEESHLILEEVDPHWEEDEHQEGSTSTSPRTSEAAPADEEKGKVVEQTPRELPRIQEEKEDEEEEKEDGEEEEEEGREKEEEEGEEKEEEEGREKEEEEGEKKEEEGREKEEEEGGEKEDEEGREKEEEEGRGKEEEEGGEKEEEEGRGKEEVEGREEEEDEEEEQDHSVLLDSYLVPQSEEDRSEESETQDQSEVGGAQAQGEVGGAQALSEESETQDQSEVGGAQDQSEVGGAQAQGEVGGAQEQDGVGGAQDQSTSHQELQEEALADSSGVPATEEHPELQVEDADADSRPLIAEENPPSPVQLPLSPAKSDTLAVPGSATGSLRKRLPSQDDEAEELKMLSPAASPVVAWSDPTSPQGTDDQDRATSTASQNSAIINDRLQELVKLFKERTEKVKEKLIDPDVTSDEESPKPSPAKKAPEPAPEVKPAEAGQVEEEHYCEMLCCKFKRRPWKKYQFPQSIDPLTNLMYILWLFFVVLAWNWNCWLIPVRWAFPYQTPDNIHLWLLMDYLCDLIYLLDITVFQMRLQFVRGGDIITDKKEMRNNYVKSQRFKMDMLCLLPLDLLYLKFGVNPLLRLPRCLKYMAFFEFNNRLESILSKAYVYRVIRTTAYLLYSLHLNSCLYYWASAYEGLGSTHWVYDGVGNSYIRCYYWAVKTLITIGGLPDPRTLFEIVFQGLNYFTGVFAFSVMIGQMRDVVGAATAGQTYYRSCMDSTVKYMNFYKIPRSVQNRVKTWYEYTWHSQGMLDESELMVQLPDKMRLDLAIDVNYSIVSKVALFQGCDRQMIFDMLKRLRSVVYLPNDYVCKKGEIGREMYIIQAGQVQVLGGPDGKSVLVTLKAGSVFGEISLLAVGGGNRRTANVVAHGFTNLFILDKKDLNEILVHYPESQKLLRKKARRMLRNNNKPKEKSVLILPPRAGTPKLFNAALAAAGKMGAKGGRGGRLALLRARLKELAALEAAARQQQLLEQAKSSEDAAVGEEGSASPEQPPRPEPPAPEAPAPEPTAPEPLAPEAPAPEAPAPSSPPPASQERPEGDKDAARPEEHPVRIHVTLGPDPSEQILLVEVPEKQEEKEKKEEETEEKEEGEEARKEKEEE", "test": "biochemical", "assay_type": "cell-based", "conditions": "2 mM cGMP; for voltage dependence of block: +50 vs −50 mV", "description": "Currents were elicited by a voltage step protocol from 0 to −50 to +50 mV (See FIG. 1) in the presence of 2 mM cGMP or 2 mM cGMP and compound (5 μM). Time scale is shown in the lower left-hand corner of the panel and FIG. 1, and the zero current level is indicated by the dotted line.\nThe solid line indicates the fit of the equation for block at a single binding site.\nTime scale is shown in the lower left-hand corner of the panel and FIG. 1, and the zero current level is indicated by the dotted line. […] Solid line indicates the fit of the equation for block at a single binding site.\nThe effectiveness of retinal rod CNG channel current block by the disclosed compounds was tested in Xenopus oocyte preparations. Excised, inside-out patches pulled from oocytes expressed heteromeric rod CNG channels consisting of CNGA1 and CNGB1 subunits. […] CNG channel currents were elicited by a voltage step protocol to −50 and +50 mV (FIG. 1). The apparent KD value at each membrane potential was estimated first by determining I+B and I−B at steady state, where I+B is the current in the presence of blocker and I−B is current in the absence of blocker, for different blocker concentrations ([B]).\nOvaries were surgically removed from adult Xenopus laevis females (Xenopus Express; Brooksville, Fla.) anesthetized with ice-cold 0.1% tricaine and 0.1% NaHCO3 solution. Oocytes were chemically released from ovarian follicles in Ca^2+-free Barth's solution (88 mM NaCl, 1 mM KCl, 2.4 mM NaHCO3, 0.82 mM MgSO4, 7.5 mM Tris, 2.5 mM sodium pyruvate, 100 U/mL penicillin, and 100 μg/mL streptomycin, pH 7.4) containing 0.1 U/mL Liberase Blendzymes (Roche, Indianapolis, Ind.). Stages IV and V oocytes were visually sorted and stored in ND-96 (96 mM NaCl, 2 mM KCl, 1.8 mM CaCl2, 1 mM MgCl2, 5 mM HEPES, 2.5 mM sodium pyruvate, 100 U/mL penicillin, and 100 μg/mL streptomycin, pH 7.4) at 16° C. Oocytes were co-injected the following day with 33 ng of CNGA1 and 67 ng of CNGB1 cRNA […] synthesized from linearized pGEM-HE expression vectors containing the channel subunit cDNA sequence (Strassmaier T & Karpen J, J Med Chem 50, 4186-4194, (2007), incorporated by reference herein) using T7 mMESSAGE mMACHINE® (Ambion, Austin, Tex.). Injected oocytes were incubated at 18° C. the first day and 16° C. for the remaining days.\nRecordings from inside-out excised patches were made 3-7 days after oocyte injection on an Axopatch 1D® amplifier (Axon Instruments, Foster City, Calif.). Briefly, oocyte vitelline membranes were removed in solution containing 200 mM K aspartate, 20 mM KCl, 1 mM MgCl2, 10 mM EGTA, 10 mM HEPES, pH 7.4. Oocytes were placed in a recording chamber in a solution containing 130 mM NaCl, 2 mM HEPES, 0.02 mM EDTA, 1 mM EGTA, pH 7.6, and borosilicate glass electrodes (1-3 MΩ) were filled with identical solution. Macroscopic currents were filtered at 1 kHz and sampled at 2 kHz using pCLAMP 8.0® software (Axon Instruments). Channels were either fully activated with 2 mM or partially activated with 50 and 100 μM cGMP. […] Glass syringes and Teflon tubing were used to minimize the binding of compounds to surfaces; concentrations passing through the perfusion system were verified by absorbance."}, "chymotrypsin": {"target": "T1, chymotrypsin (Bos taurus, UniProt P00766)", "T1 construct": "purchased Worthington Biochemical Co", "test": "In vitro hydrolysis by chymotrypsin", "assay_type": "in vitro ADME", "description": "All enzymatic assays were performed with 50 μM compound in 0.1M phosphate buffer, pH 7.4, at 37° C. with stirring, unless otherwise noted. Butyrylcholinesterase stock solutions from human serum (Sigma, St. Louis, Mo.) were prepared at 100 U/mL in 0.1 M phosphate buffer, pH 7.4, and stored at −20° C. until use. Hydrolysis was monitored on an 8452A diode array spectrophotometer (Hewlett-Packard). Product peak wavelength absorption was immediately monitored upon addition of compound. Absorbances for complete hydrolysis were determined when there were no further detectable changes. […] All hydrolysis assays were performed in triplicate, and final rate constants are expressed as the mean±SD of the three individually determined rate constants. […] Activity of chymotrypsin (bovine, Worthington Biochemical Co., 190 μg/mL) was verified with 90 μM 4-nitrophenyl acetate in 0.1 M HEPES solution, pH 6.5, at 37° C. with stirring. Hydrolysis product was monitored at 404 nm for 10 min. Activity of proteinase K (from Engyodontium album, Sigma, 165 μg/mL) was verified with 16.5 mg/mL bovine serum albumin in 0.1 M phosphate buffer, pH 7.4, at 37° C. Samples were taken at time point increments up to 2 hours when the reaction reached completion. Samples were analyzed with 12% SDS-PAGE, stained with 0.1% Coomassie Blue."}, "proteinase K": {"target": "T2, proteinase K (Parengyodontium album, UniProt P06873)", "T2 construct": "purchased Sigma", "T2 sequence (P06873 106-384)": "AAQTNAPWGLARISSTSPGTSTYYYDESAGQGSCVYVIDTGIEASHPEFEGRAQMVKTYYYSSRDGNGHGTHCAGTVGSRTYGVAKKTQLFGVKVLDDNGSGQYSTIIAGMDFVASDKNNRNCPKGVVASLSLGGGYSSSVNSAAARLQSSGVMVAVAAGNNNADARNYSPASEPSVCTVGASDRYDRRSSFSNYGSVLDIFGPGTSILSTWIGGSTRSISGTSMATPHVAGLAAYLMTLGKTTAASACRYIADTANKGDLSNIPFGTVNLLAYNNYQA", "test": "In vitro hydrolysis by proteinase K", "assay_type": "in vitro ADME, Engyodontium album", "description": "Hydrolysis products of 4-nitrophenyl acetate and BSA were detected as positive controls.\nAll enzymatic assays were performed with 50 μM compound in 0.1M phosphate buffer, pH 7.4, at 37° C. with stirring, unless otherwise noted. Butyrylcholinesterase stock solutions from human serum (Sigma, St. Louis, Mo.) were prepared at 100 U/mL in 0.1 M phosphate buffer, pH 7.4, and stored at −20° C. until use. Hydrolysis was monitored on an 8452A diode array spectrophotometer (Hewlett-Packard). Product peak wavelength absorption was immediately monitored upon addition of compound. Absorbances for complete hydrolysis were determined when there were no further detectable changes. […] All hydrolysis assays were performed in triplicate, and final rate constants are expressed as the mean±SD of the three individually determined rate constants. In some experiments with compound 1, samples were taken at the beginning and end of the assay to verify the hydrolysis product and the completion of the reaction by HPLC. These samples were compared to compounds 1 and 3 on a C18 column eluted with 0.1% TFA in water/acetonitrile. Activity of chymotrypsin (bovine, Worthington Biochemical Co., 190 μg/mL) was verified with 90 μM 4-nitrophenyl acetate in 0.1 M HEPES solution, pH 6.5, at 37° C. with stirring. Hydrolysis product was monitored at 404 nm for 10 min. Activity of proteinase K (from Engyodontium album, Sigma, 165 μg/mL) was verified with 16.5 mg/mL bovine serum albumin in 0.1 M phosphate buffer, pH 7.4, at 37° C. Samples were taken at time point increments up to 2 hours when the reaction reached completion. Samples were analyzed with 12% SDS-PAGE, stained with 0.1% Coomassie Blue."}, "[2]": {"conditions": "+50 mV, concentration series of FIG. 4 / FIG. 5, read-out: KD values determined from the fit of the equation"}, "[3]": {"conditions": "Table 1, +50 mV, mean±SD, not corrected for ion accumulation, read-out: KD(+50)"}, "[4]": {"conditions": "Table 1, −50 mV, mean±SD, not corrected for ion accumulation, read-out: KD(−50)"}, "[5]": {"conditions": "−50 mV, concentration series of FIG. 4 / FIG. 5, read-out: KD values determined from the fit of the equation"}}, "note": "Where two headings read alike, the source gives them in different places.", "data": [{"smiles": "CCCCCCCCNc1ccc(C(=O)OCCN(C)C)cc1", "note": "[Compound 5, 2-(Dimethylamino)ethyl 4-(Octylamino)benzoate, reference compound]", "values": [{"measurement": "voltage dependence of block", "setting": "[1]", "value": "appreciably less voltage dependent than compound 1, 6, and 8"}, {"measurement": "Kd", "setting": "[1]; [2]", "value": 1.5, "unit": "µM"}, {"measurement": "Kd", "setting": "[1]; [3]", "value": "1 ± 0.6", "unit": "µM"}, {"measurement": "Kd", "setting": "[1]; [4]", "value": "2.4 ± 1.4", "unit": "µM"}, {"measurement": "Kd", "setting": "[1]; octyl series table, +50 mV, read-out: KD(+50)", "value": "0.8 ± 0.5", "unit": "µM"}, {"measurement": "Kd", "setting": "[1]; octyl series table, −50 mV, read-out: KD(−50)", "value": "1.72 ± 1.38", "unit": "µM"}, {"measurement": "Kd", "setting": "[1]; [5]", "value": 1.8, "unit": "µM"}]}, {"smiles": "CCCCCCCCNc1ccc(C(=S)NCCN(C)C)cc1", "note": "[Compound 9, 4-(Octylamino)-N-(2-(dimethylamino)ethyl)benzothioamide]", "values": [{"measurement": "voltage dependence of block", "setting": "[1]", "value": "appreciably less voltage dependent than compound 1, 6, and 8"}, {"measurement": "Kd", "setting": "[1]; [2]", "value": 1.3, "unit": "µM"}, {"measurement": "Kd", "setting": "[1]; [3]", "value": "0.7 ± 0.5", "unit": "µM"}, {"measurement": "Kd", "setting": "[1]; [5]", "value": 1.8, "unit": "µM"}, {"measurement": "hydrolysis products with chymotrypsin", "setting": "chymotrypsin", "value": "not able to generate any detectable hydrolysis products"}, {"measurement": "hydrolysis products with proteinase K", "setting": "proteinase K", "value": "not able to generate any detectable hydrolysis products"}]}, {"smiles": "CCCCNc1ccc(C(=S)NCCN(C)C)cc1", "note": "[Compound 8, 4-(Butylamino)-N-(2-(dimethylamino)ethyl)benzothioamide]", "values": [{"measurement": "Kd", "setting": "[1]; [2]", "value": 0.5, "unit": "µM"}, {"measurement": "Kd", "setting": "[1]; [3]", "value": "0.6 ± 0.3", "unit": "µM"}, {"measurement": "Kd", "setting": "[1]; [4]", "value": "3.9 ± 1.8", "unit": "µM"}, {"measurement": "Kd", "setting": "[1]; [5]", "value": 3.7, "unit": "µM"}, {"measurement": "hydrolysis products with chymotrypsin", "setting": "chymotrypsin", "value": "not able to generate any detectable hydrolysis products"}, {"measurement": "hydrolysis products with proteinase K", "setting": "proteinase K", "value": "not able to generate any detectable hydrolysis products"}]}]}
